Assay results as given in patent US20060069032A1 (L'OREAL, priority 2003, published 2006).

Assays:
epidermal keratinocyte = conditions: Nissen J B et al, Exp. Dermatol. 1997; cited from earlier work
[1] = system: Loricrin (LORI) messenger; assay: Loricrin messenger expression by quantitative RT-PCR in reconstructed epidermis SkinEthic; assay type: cell-based, human
Description: (§1) The study was carried out on a model of reconstructed epidermis SkinEthic. Upon receiving, the epidermes were precultured for 24 hours in SkinEthic medium. The culture medium was then replaced with medium containing the test product (two epidermes per concentration tested), and then the epidermes were cultured for 24 hours at 37° C. and 5% CO2. A batch of 2 epidermes was not treated. The culture supernatants were then removed and the epidermes were rinsed with a PBS solution, cut and deposited in sterile RNA-free tubes in the presence of Tri-Reagent (Sigma T9424) and then immediately frozen at −80° C.
(§2) The pairs of primers which were used in this study allow the amplification of the following specific fragments:
(§3) The reverse transcription was carried out in the following manner: • extraction of the total RNA of each epidermis with the aid of Tri-Reagent according to the protocol recommended by the supplier, and then a new extraction with chloroform and precipitation with isopropanol. • removal of the traces of potentially contaminating DNA by treating with the DNA-free system (Ambion) • carrying out of the reaction of reverse transcription of the mRNA in the presence of the oligo(dT) primer and of the enzyme Superscript II (Gibco) • quantification, by fluorescence, of the synthesized cDNA and adjustment of the concentrations of 50 ng/ml.
(§4) The PCR reactions (polymerase chain reactions) were carried out by quantitative PCR with the “Light cycler” system (Roche Molecular Systems Inc.) according to the procedures recommended by the supplier.
(§5) The PCR conditions were the following: activation of 10 min at 95° C., PCR reactions (10 sec at 95° C., 5 sec at 64° C. and 35 sec at 72° C.) 40 cycles, fusion of 5 sec at 95° C. and then 5 sec at 60° C.
(§6) The incorporation of fluorescence into the amplified DNA was measured continuously during the PCR cycles. This system makes it possible to obtain fluorescence measurement curves as a function of the PCR cycles and to thereby evaluate a relative expression value for each marker. The RE (relative expression) value is expressed in arbitrary units according to the following formula: (1/2^number of cycles)×10^6.
(§7) The results were expressed relative to the quantity of actin messenger (reference gene) and are represented, per marker, in the following tables.

[2] = system: Calmodulin-like skin protein (CLSP) messenger; assay: Calmodulin-like skin protein (CLSP) messenger expression by quantitative RT-PCR in reconstructed epidermis SkinEthic; assay type: cell-based, human; conditions: 0.01 μM, 24 hours
Description: as §1, §2, §3, §4, §5, §6, §7

[3] = system: Transglutaminase 1 (TGK) messenger; assay: Transglutaminase I (TGK) messenger expression by quantitative RT-PCR in reconstructed epidermis SkinEthic; assay type: cell-based, human
Description: as §1, §2, §3, §4, §5, §6, §7

[4] = 0.01 μM, 24 hours, control = 100

## β-Endorphin [Beta-endorphin]
Epidermal keratinocyte
  effect on epidermal proliferation and differentiation: no effect
[1]; 0.01 μM, 24 hours
  LORI/actin: 10.2
  RE*LORI (UA): 11.24 UA
[1]; 0.01 μM, 24 hours, reference gene, loricrin table
  RE*actin (UA): 1.11 UA
[1]; [4]
  LORI/actin % control: 179%
[1]; at physiological concentration
  expression of the loricrin marker (in words): stimulate the expression
[2]
  CLSP/actin: 0.0961
  RE*CLSP (UA): 0.1032 UA
[2]; reference gene, CLSP table
  RE*actin (UA): 1.07 UA
[2]; control = 100
  CLSP/actin % control: 174%
[3]; 0.01 μM, 24 hours
  RE*TGK (UA): 0.165 UA
[3]; 0.01 μM, 24 hours, reference gene, TGK table
  RE*actin (UA): 1.11 UA
[3]; [4]
  TGK/actin % control: 176%
[3]; at physiological concentration
  expression of the TGK messenger (in words): an effect of the same type, although slightly less pronounced
